For one assay, the target named is human BACE-1 (Homo sapiens, UniProt P56817). The experiment in a line: Test 1: Inhibition of human BACE-1. The conditions noted are these: recombinant BACE-1, pH 4.5, fluorescence-quenched APP-derived peptide substrate. It counts as biochemical. As to the method:
Test 1: Inhibition of Human BACE-1
IC50 values are calculated from percentage of inhibition of BACE-1 activity as a function of the test compound concentration.

Assay [1] concerns cellular release of amyloid peptide 1-40. The experiment in a line: Test 4: Inhibition of cellular release of amyloid peptide 1-40. It counts as cell-based. The conditions noted are these: Cricetulus griseus, Chinese hamster ovary cells transfected with the gene for amyloid precursor protein, 24 hours with compound, amyloid peptide 1-40 in supernatant, read-out: Bace IC50. As to the method:
Test 4: Inhibition of Cellular Release of Amyloid Peptide 1-40
Chinese hamster ovary cells are transfected with the gene for amyloid precursor protein. The cells are plated at a density of 8000 cells/well into 96-well microtiter plates and cultivated for 24 hours in DMEM cell culture medium containing 10% FCS. The test compound is added to the cells at various concentrations, and the cells are cultivated for 24 hours in the presence of the test compound. The supernatants are collected, and the concentration of amyloid peptide 1-40 is determined using state of the art immunoassay techniques, for example sandwich ELISA, homogenous time-resolved fluorescence (HTRF) immunoassay, or electro-chemiluminescence immunoassay. The potency of the compound is calculated from the percentage of inhibition of amyloid peptide release as a function of the test compound concentration.

The text below walks through data of patent publication US20150322038A1, “PYRAZINE DERIVATIVES AND THEIR USE IN THE TREATMENT OF NEUROLOGICAL DISORDERS” (NOVARTIS AG, priority 2009, published 2015).

Chain of human BACE-1 (P56817 46-457 limits assumed): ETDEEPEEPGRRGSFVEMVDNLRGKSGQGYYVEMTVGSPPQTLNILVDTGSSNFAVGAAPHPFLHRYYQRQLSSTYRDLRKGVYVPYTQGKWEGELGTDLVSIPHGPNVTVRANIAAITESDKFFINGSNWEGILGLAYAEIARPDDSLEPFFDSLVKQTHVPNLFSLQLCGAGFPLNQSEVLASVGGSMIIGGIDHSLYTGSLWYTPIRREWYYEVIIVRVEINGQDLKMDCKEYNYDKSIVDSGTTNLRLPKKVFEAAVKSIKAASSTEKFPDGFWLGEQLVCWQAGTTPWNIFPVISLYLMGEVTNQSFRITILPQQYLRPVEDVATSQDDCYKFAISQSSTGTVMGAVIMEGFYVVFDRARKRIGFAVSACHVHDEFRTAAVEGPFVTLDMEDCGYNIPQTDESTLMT

As for `COC(=O)N1CC(N)=NC(c2cc(NC(=O)c3ccc(Br)cn3)ccc2F)(C(F)F)C1` (stereo not drawn) [Example 19, 5-Amino-3-{5-[(5-bromo-pyridine-2-carbonyl)-amino]-2-fluoro-phenyl}-3-difluoromethyl-3,6-dihydro-2H-pyrazine-1-carboxylic acid methyl ester], the IC50 at human BACE-1 was determined as 22 nM; in assay [1], 15 nM.

Turning to `COC(=O)N1CC(N)=NC(c2cc(NC(=O)c3ccc(C#N)cn3)ccc2F)(C(F)F)C1` (stereo not drawn) [Example 20, 5-Amino-3-{5-[(5-cyano-pyridine-2-carbonyl)-amino]-2-fluoro-phenyl}-3-difluoromethyl-3,6-dihydro-2H-pyrazine-1-carboxylic acid methyl ester], the IC50 on human BACE-1 was determined as 52 nM; in assay [1], 57 nM.

Consider `CC(=O)N1CC(N)=NC(c2cc(NC(=O)c3ncc(Br)cc3C)ccc2F)(C(F)F)C1` (stereo not drawn) [Example 21, 5-Bromo-3-methyl-pyridine-2-carboxylic acid [3-(4-acetyl-6-amino-2-difluoromethyl-2,3,4,5-tetrahydro-pyrazin-2-yl)-4-fluoro-phenyl]-amide], for which the values for the IC50 (on human BACE-1; in assay [1]) were 9 nM and 31 nM, respectively.

For `Cc1cc(Br)cnc1C(=O)Nc1ccc(F)c(C2(C(F)F)CN(C(=O)OCC(Cl)Cl)CC(N)=N2)c1` (stereo not drawn) [Example 22, 5-Amino-3-{5-[(5-bromo-3-methyl-pyridine-2-carbonyl)-amino]-2-fluoro-phenyl}-3-difluoromethyl-3,6-dihydro-2H-pyrazine-1-carboxylic acid 2,2-dichloro-ethyl ester], the IC50 is 5 nM at human BACE-1 and 21 nM in assay [1].

With `COCC(=O)N1CC(N)=NC(c2cc(NC(=O)c3ncc(Br)cc3C)ccc2F)(C(F)F)C1` (stereo not drawn) [Example 23, 5-Bromo-3-methyl-pyridine-2-carboxylic acid {3-[6-amino-2-difluoromethyl-4-(2-methoxy-acetyl)-2,3,4,5-tetrahydro-pyrazin-2-yl]-4-fluoro-phenyl}-amide], the IC50 was 7 nM on human BACE-1 and 34 nM in assay [1].

Take `Cc1cc(Br)cnc1C(=O)Nc1ccc(F)c(C2(C(F)F)CN(C(=O)C3CC3)CC(N)=N2)c1` (stereo not drawn) [Example 24, 5-Bromo-3-methyl-pyridine-2-carboxylic acid [3-(6-amino-4-cyclopropanecarbonyl-2-difluoromethyl-2,3,4,5-tetrahydro-pyrazin-2-yl)-4-fluoro-phenyl]-amide]: the IC50 at human BACE-1 came to 11 nM; in assay [1], 28 nM.

For `Cc1cc(Br)cnc1C(=O)Nc1ccc(F)c(C2(C(F)F)CNCC(N)=N2)c1` (stereo not drawn) [Example 25, 5-Bromo-3-methyl-pyridine-2-carboxylic acid [3-(6-amino-2-difluoromethyl-2,3,4,5-tetrahydro-pyrazin-2-yl)-4-fluoro-phenyl]-amide], the IC50 is 28 nM on human BACE-1 and 10 nM in assay [1].

For the molecule `CC(=O)N1CC(N)=NC(c2cc(NC(=O)c3ncc(OC(F)F)cc3C)ccc2F)(C(F)F)C1` (stereo not drawn) [Example 26, 5-Difluoromethoxy-3-methyl-pyridine-2-carboxylic acid [3-(4-acetyl-6-amino-2-difluoromethyl-2,3,4,5-tetrahydro-pyrazin-2-yl)-4-fluoro-phenyl]-amide], the IC50 on human BACE-1 came to 23 nM; in assay [1] it was 44 nM.

Take `NC1=N[C@@](c2cc(NC(=O)c3ncc(=O)[nH]c3N)ccc2F)(C(F)F)CNC1` [Example 29, 3-Amino-5-oxo-4,5-dihydro-pyrazine-2-carboxylic acid [3-((R)-6-amino-2-difluoromethyl-2,3,4,5-tetrahydro-pyrazin-2-yl)-4-fluoro-phenyl]-amide]: the IC50 on human BACE-1 was determined as 220 nM; in assay [1], 860 nM.

What is called IC50 is the concentration that gives 50% inhibition.
